Data taken from US6495533B1, “Drugs containing phosphoric acid derivatives as the active ingredient” (Ono Pharmaceutical Co., Ltd., priority 1999, dated 2002).

Test system: TNFα production
Assay: Measure of TNFα production inhibitory activity (serum TNFα after LPS challenge in mice)
Assay type: in vivo
Conditions: female BALB/c mice, 7 weeks; test compound intravenous; LPS 100 μg/mouse intraperitoneal; blood 90 minutes after LPS; serum TNFα by ELISA; read-out: ED50 (50% effective dose) for inhibition of serum level of TNFα
Protocol: (i) Measure of TNFα Production Inhibitory Activity
Measure of TNFα production inhibitory activity was prepared according to procedures described previously (Kazuo Ohuchi, SEIBUTSUKAGAKUJIKKENKOZA, 12, 707 (1994) Hirokawa, Tokyo). Female mice (BALB/c, 7 weeks) were injected with test compounds via intravenous administration and with LPS (100 μg/mouse) (Bacto W. E. coli 055:B5; DIFCO Lab.) via in traperitoneal administration. At 90 minutes after LPS challenge, blood with heparin was obtained from abdominal aorta, and serum was stored at −80° C. Serum level of TNFα was determined by mouse cytokine ELISA kit (Genzyme). Inhibition and 50% effective dose (ED50) of test compounds were calculated as 100% of the difference of serum level of TNFα between in control and in LPS. ED50 of some compounds produced by the following examples were 0.01-100 mg/kg.

CCCCCCCC(=O)N[C@@H](COP(=O)(O)O)c1ccccc1 [example 8]
ED50: 2.6 mg/kg
